Reference: patent US20260001914A1, “MACROCYCLIC PEPTIDES TARGETING KRAS” (Merck Sharp & Dohme LLC, priority 2022, published 2026)
*1 amine or outer side, *2 acyl side, *3 side chain or, on linkers, in order; H or OH if unused. Where a SMILES comes first, the peptide text is derived from it. Bridges are numbered along the chain shown (N, C = ends). [ ]: non-standard residue; d: D form. cBu(1-CO,cis-3-CH2NH) = O=C([C@H]1C[C@@H](CN[*:1])C1)[*:2]; NMeNva(5-imidazol-1-yl) = CN[C@@H](CCCn1ccnc1)C(=O)O; Phe(4-guanidino) = N=C(N)Nc1ccc(C[C@H](N)C(=O)O)cc1; X72 = CC1(C)NC(=N)N(CCC[C@H](N[*:1])C(=O)[*:2])C1=O; X22 = CNC(=N)N(C)CCC[C@@H](C(=O)[*:2])N(C)[*:1]; Ala(pyrimidin-5-yl) = N[C@@H](Cc1cncnc1)C(=O)O; X71 = COc1c(F)cc(C[C@H](N[*:1])C(=O)[*:2])cc1F; NMe3Pal(6-Me) = CN[C@@H](Cc1ccc(C)nc1)C(=O)O; NMePhe(4-F) = CN[C@@H](Cc1ccc(F)cc1)C(=O)O; X51 = COc1cc(C[C@H](N[*:1])C(=O)[*:2])ncn1; X27 = Cc1ccc(C[C@H](N[*:1])C(=O)[*:2])cn1; X15 = O=C([C@H](Cc1cnccc1F)N[*:1])[*:2]; X32 = CS(=O)(=O)CCCN(CC(=O)[*:2])[*:1]; X21 = O=C([C@@H]1C[C@H]1CN[*:1])[*:2]; Phe(2-F) = N[C@@H](Cc1ccccc1F)C(=O)O; Gly(octyl) = CCCCCCCC[C@H](N)C(=O)O; NMe3Pal = CN[C@@H](Cc1cccnc1)C(=O)O; X1 = O=C(C12CC(CN[*:1])(C1)C2)[*:2]; X17 = O=C([C@H](CCCCF)N[*:1])[*:2]; NMeOrn(Me) = CNCCC[C@H](NC)C(=O)O; Ala(cPr) = N[C@@H](CC1CC1)C(=O)O; NMeF = CN[C@@H](Cc1ccccc1)C(=O)O; PhLac = O=C(O)[C@@H](O)Cc1ccccc1; 3Pal = N[C@@H](Cc1cccnc1)C(=O)O; d3Pal = N[C@H](Cc1cccnc1)C(=O)O; Ahp(2) = CCCCC[C@H](N)C(=O)O; Cba = N[C@@H](CC1CCC1)C(=O)O; hLeu = CC(C)CC[C@H](N)C(=O)O; hLys = NCCCCC[C@H](N)C(=O)O; NMeS = CN[C@@H](CO)C(=O)O; αMeC = C[C@](N)(CS)C(=O)O; NMeA = CN[C@@H](C)C(=O)O; Nle = CCCC[C@H](N)C(=O)O

Biological target: KRAS-G12D protein (Homo sapiens, UniProt P01116, G12D)
Sequence (P01116 1-188 isoform P01116-2 G12D): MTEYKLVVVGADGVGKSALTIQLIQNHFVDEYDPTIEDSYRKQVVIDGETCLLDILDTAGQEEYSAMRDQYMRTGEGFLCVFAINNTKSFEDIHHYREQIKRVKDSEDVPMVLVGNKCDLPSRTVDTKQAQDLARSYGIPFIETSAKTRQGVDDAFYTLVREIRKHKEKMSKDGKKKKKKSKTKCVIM
Assay: SOS-mediated nucleotide exchange assay (BODIPY-GDP / Tb-streptavidin TR-FRET)
Type: biochemical

SMILES | EC50 [nM]
COc1ccc(C[C@@H]2NC(=O)[C@H](CC3CCC3)NC(=O)[C@H](Cc3cccnc3)NC(=O)[C@H](CCCNC(=N)N)NC(=O)[C@H](Cc3ccccc3)NC(=O)CSC[C@](C)(C(N)=O)NC(=O)[C@@H]3CCCCCCCC[C@H](NC2=O)C(=O)N3C)cc1 [SEQ ID NO: 193, cyclo(F-R-3Pal-cBuA-TyrOMe-AheNMeAhe-aMeC-C1Ac)] | 900
CCCCC[C@@H]1NC(=O)[C@H](Cc2ccc(OC)cc2)NC(=O)[C@H](CC2CCC2)NC(=O)[C@H](CCCCCN)NC(=O)[C@H](CCCNC(=N)N)NC(=O)[C@H](Cc2ccccc2)NC(=O)CSC[C@@](C)(C(N)=O)NC(=O)[C@H](Cc2ccccc2)N(C)C1=O [compound 348, cyclo(F-R-hK-cBuA-TyrOMe-Ahp-NMeF-aMeCl-ClAc)] ({CH2CO}-FR[hLys][Cba]Y(Me)[Ahp(2)][NMeF][αMeC]-NH2; thioether N-8) | 45.8
CCCCC[C@@H]1NC(=O)[C@H](Cc2ccc(OC)cc2)NC(=O)[C@H](CC2CCC2)NC(=O)[C@H](Cc2ccc(NC(=N)N)cc2)NC(=O)CN(CCCS(C)(=O)=O)C(=O)[C@H](Cc2ccccc2)NC(=O)CSC[C@@](C)(C(N)=O)NC(=O)[C@H](Cc2ccccc2)N(C)C1=O [compound 389, cyclo(F-Mspg-Phe4Gn-cBuA-TyrOMe-Ahp-NMeF-aMeCl-ClAc)] ({CH2CO}-F[X32][Phe(4-guanidino)][Cba]Y(Me)[Ahp(2)][NMeF][αMeC]-NH2; thioether N-8) | 441
CCCC[C@@H]1NC(=O)[C@H](Cc2cc(F)c(OC)c(F)c2)NC(=O)[C@H](C)N(C)C(=O)[C@H](Cc2ccccc2)OC(=O)C23CC(CNC(=O)[C@H](Cc4ccccc4)N(C)C(=O)[C@H](CCCC)NC(=O)[C@H](Cc4ccccc4F)NC1=O)(C2)C3 [compound 310, cyclo(FLac-NMeA-TyrOMe35F2-Nle-Phe2F-Nle-NMeF-amBCP)] (cyclo([NMeA][X71][Nle][Phe(2-F)][Nle][NMeF][X1][PhLac])) | 140
CCCCCCCC[C@@H]1NC(=O)[C@H](Cc2ccc(O)cc2)NC(=O)[C@H](CC(C)C)NC(=O)[C@H](Cc2ccc(O)cc2)NC(=O)[C@H](CCCNC(=N)N)NC(=O)[C@H](Cc2ccccc2)NC(=O)CSC[C@@H](C(=O)NCC(=O)N[C@@H](CCCCN)C(=O)N[C@@H](CCCCN)C(N)=O)NC(=O)[C@H](Cc2ccccc2)N(C)C1=O [compound 59, cyclo(-F-R-Y-L-Y-Aca-NMeF-C2-ClAc)] ({CH2CO}-FRYLY[Gly(octyl)][NMeF]CGKK-NH2; thioether N-8) | 812
CCCC[C@@H]1NC(=O)[C@H](Cc2cccnc2)NC(=O)[C@H](C)N(C)C(=O)[C@H](Cc2ccccc2)OC(=O)CSC[C@@](C)(C(N)=O)NC(=O)[C@H](Cc2cccnc2)N(C)C(=O)[C@H](CCCC)NC(=O)[C@H](Cc2ccccc2F)NC1=O [compound 398, cyclo(FLac-NMeA-3Pal-Nlc-Phe2F-Nle-NMe3Pal-aMeCl-ClAc)] ({CH2CO}-[PhLac][NMeA][3Pal][Nle][Phe(2-F)][Nle][NMe3Pal][αMeC]-NH2; thioether N-8) | 3.81
CCCC[C@@H]1NC(=O)[C@H](Cc2cc(OC)ncn2)NC(=O)[C@H](C)N(C)C(=O)[C@H](Cc2ccccc2)OC(=O)C23CC(CNC(=O)[C@H](Cc4ccccc4)N(C)C(=O)[C@H](CCCC)NC(=O)[C@H](Cc4ccccc4F)NC1=O)(C2)C3 [compound 306, cyclo(FLac-NMeA-Ala6Pyrim4OMe-Nle-Phe2F-Nle-NMeF-amBCP)] (cyclo([NMeA][X51][Nle][Phe(2-F)][Nle][NMeF][X1][PhLac])) | 7000
CCCC[C@@H]1NC(=O)[C@H](Cc2ccccc2F)NC(=O)[C@H](CC2CCC2)NC(=O)[C@@H](Cc2cccnc2)NC(=O)[C@H](CCCN2C(=N)NC(C)(C)C2=O)NC(=O)[C@H](Cc2ccccc2)NC(=O)C23CC(CNC(=O)[C@H](Cc4cccnc4)N(C)C1=O)(C2)C3 [compound 105, cyclo(F-baceNva-d3Pal-cBuA-Phe2F-Nle-NMe3Pal-amBCP)] (cyclo(F[X72][d3Pal][Cba][Phe(2-F)][Nle][NMe3Pal][X1])) | 7.56
CCCCC[C@@H]1NC(=O)[C@H](Cc2ccc(OC)cc2)NC(=O)[C@H](CC2CCC2)NC(=O)[C@H](Cc2ccc(=O)[nH]c2)NC(=O)[C@H](CCCNC(=N)N)NC(=O)[C@H](Cc2ccccc2)NC(=O)CSC[C@@](C)(C(N)=O)NC(=O)[C@H](Cc2ccccc2)N(C)C1=O [compound 369, cyclo(F-R-4CO3Pal-cBuA-TyrOMe-Abp-NMeF-aMeCl-ClAc)] | 19.4
CCCC[C@@H]1NC(=O)[C@H](Cc2cncnc2)NC(=O)[C@H](C)N(C)C(=O)[C@H](Cc2ccccc2)OC(=O)C23CC(CNC(=O)[C@H](Cc4ccc(F)cc4)N(C)C(=O)[C@H](CCCC)NC(=O)[C@H](Cc4ccccc4F)NC1=O)(C2)C3 [compound 173, cyclo(FLac-NMeA-PyrimAla-Nle-Phe2F-Nle-NMePhe4F-amBCP)] (cyclo([NMeA][Ala(pyrimidin-5-yl)][Nle][Phe(2-F)][Nle][NMePhe(4-F)][X1][PhLac])) | 12.5
CCCCC[C@@H]1NC(=O)[C@H](Cc2ccc(O)cc2)NC(=O)[C@H](CC(C)C)NC(=O)[C@H](Cc2ccc(O)cc2)NC(=O)[C@H](CCCNC(=N)N)NC(=O)[C@H](Cc2ccccc2)NC(=O)CSC[C@@H](C(=O)NCC(=O)N[C@@H](CCCCN)C(=O)N[C@@H](CCCCN)C(N)=O)NC(=O)[C@H](Cc2ccccc2)N(C)C1=O [compound 56, cyclo(F-R-Y-L-Y-Ahp-NMeF-C2-ClAc)] ({CH2CO}-FRYLY[Ahp(2)][NMeF]CGKK-NH2; thioether N-8) | 534
CCCC[C@@H]1NC(=O)[C@H](Cc2cncnc2)NC(=O)[C@H](CCCn2ccnc2)N(C)C(=O)[C@H](Cc2ccccc2)OC(=O)C23CC(CNC(=O)[C@H](Cc4ccccc4)N(C)C(=O)[C@H](CCCC)NC(=O)[C@H](Cc4ccccc4F)NC1=O)(C2)C3 (single isomer, unassigned) [compound 223, cyclo(FLac-NMeNvalmid-PyrimAla-Nle-Phe2F-Nle-NMeF-amBCP)] | 25.3
CCCC[C@@H]1NC(=O)[C@H](Cc2ccccc2F)NC(=O)[C@H](CCCCF)NC(=O)[C@H](Cc2cncnc2)NC(=O)[C@H](C)N(C)C(=O)[C@H](Cc2ccccc2)OC(=O)C23CC(CNC(=O)[C@H](Cc4ccccc4)N(C)C1=O)(C2)C3 [compound 130, cyclo(FLac-NMeA-PyrimAla-NleF-Phe2F-Nle-NMeF-amBCP)] (cyclo([NMeA][Ala(pyrimidin-5-yl)][X17][Phe(2-F)][Nle][NMeF][X1][PhLac])) | 2.43
CCCC[C@@H]1NC(=O)[C@H](Cc2ccc(NC(=N)N)cc2)NC(=O)[C@H](CCCN(C)C(=N)NC)N(C)C(=O)[C@H](Cc2ccccc2)NC(=O)[C@H]2C[C@@H](CNC(=O)[C@H](Cc3ccccc3)N(C)C(=O)[C@H](CCCC)NC(=O)[C@H](Cc3ccc(OC)cc3)NC1=O)C2 [compound 384, cyclo(F-NMeArg1MeMe-Phe4Gn-Nle-TyrOMe-Nle-NMeF-c3amCblc)] (cyclo(F[X22][Phe(4-guanidino)][Nle]Y(Me)[Nle][NMeF][cBu(1-CO,cis-3-CH2NH)])) | 181
CCC[C@@H]1NC(=O)[C@H](Cc2ccc(O)cc2)NC(=O)[C@H](CC(C)C)NC(=O)[C@H](Cc2ccc(O)cc2)NC(=O)[C@H](CCCNC(=N)N)NC(=O)[C@H](Cc2ccccc2)NC(=O)CCCNC(=O)[C@H](Cc2ccccc2)N(C)C1=O [compound 161, cyclo(F-R-Y-L-Y-Nva-NMeF-C4NH2acid)] | 2840
CCCC[C@@H]1NC(=O)[C@H](Cc2cccnc2)NC(=O)[C@H](CCCn2ccnc2)N(C)C(=O)[C@H](Cc2ccccc2)N(C)C(=O)[C@@H]2C[C@H]2CNC(=O)[C@H](Cc2cccnc2)N(C)C(=O)[C@H](CCCC)NC(=O)[C@H](Cc2ccccc2F)NC1=O [compound 256, cyclo(NMeF-NMeNvaImid-3Pal-Nle-Phe2F-Nle-NMe3Pal-tamcPr)] (cyclo([3Pal][Nle][Phe(2-F)][Nle][NMe3Pal][X21][NMeF][NMeNva(5-imidazol-1-yl)])) | 7650
CCCCC[C@@H]1NC(=O)[C@H](Cc2ccc(OC)cc2)NC(=O)[C@H](CC2CCC2)NC(=O)[C@H](Cc2cccnc2)NC(=O)[C@H](CCCNC)N(C)C(=O)[C@H](Cc2ccccc2)NC(=O)CSC[C@@](C)(C(N)=O)NC(=O)[C@H](Cc2ccc(C)nc2)N(C)C1=O [compound 393, cyclo(F-NMeOrnMe-3Pal-cBuA-TyrOMe-Ahp-NMe3Pal4Me-aMeCl-ClAc)] ({CH2CO}-F[NMeOrn(Me)][3Pal][Cba]Y(Me)[Ahp(2)][NMe3Pal(6-Me)][αMeC]-NH2; thioether N-8) | 132
CCCC[C@@H]1NC(=O)[C@H](Cc2ccc(OC)cc2)NC(=O)[C@H](CC2CCC2)NC(=O)[C@H](Cc2cccnc2)NC(=O)[C@H](CCCNC(=N)N)NC(=O)[C@H](Cc2ccccc2)NC(=O)C2CCC3(CN(C3)C(=O)[C@H](Cc3ccccc3)N(C)C1=O)O2 (single isomer, unassigned) [compound 100, cyclo(F-R-3Pal-cBuA-TyrOMe-Nle-NMeF-spiro54)] | 656
CCCC[C@@H]1NC(=O)[C@H](Cc2cccnc2)NC(=O)[C@H](C)N(C)C(=O)[C@H](Cc2ccc(C)nc2)NC(=O)C23CC(CNC(=O)[C@H](Cc4cccnc4)N(C)C(=O)[C@H](CCCC)NC(=O)[C@H](Cc4ccccc4F)NC1=O)(C2)C3 [compound 164, cyclo(4Me3Pal-NMeA-3Pal-Nle-Phe2F-Nle-NMe3Pal-amBCP)] (cyclo([3Pal][Nle][Phe(2-F)][Nle][NMe3Pal][X1][X27][NMeA])) | 2890
CC(C)CC[C@@H]1NC(=O)[C@H](Cc2cnccc2F)NC(=O)[C@H](CC2CC2)NC(=O)[C@H](Cc2cncnc2)NC(=O)[C@H](C)N(C)C(=O)[C@H](Cc2ccccc2)OC(=O)C23CC(CNC(=O)[C@H](Cc4ccccc4)N(C)C1=O)(C2)C3 [compound 213, cyclo(FLac-NMcA-PyrimAla-cPrA-3Pal6F-hL-NMeF-amBCP)] (cyclo([Ala(cPr)][X15][hLeu][NMeF][X1][PhLac][NMeA][Ala(pyrimidin-5-yl)])) | 3.72
CCCC[C@@H]1NC(=O)[C@H](Cc2cccnc2)NC(=O)[C@H](CO)N(C)C(=O)[C@H](Cc2ccccc2)OC(=O)C23CC(CNC(=O)[C@H](Cc4cccnc4)N(C)C(=O)[C@H](CCCC)NC(=O)[C@H](Cc4ccccc4F)NC1=O)(C2)C3 [compound 118, cyclo(FLac-NMeS-3Pal-Nle-Phe2F-Nle-NMe3Pal-amBCP)] (cyclo([3Pal][Nle][Phe(2-F)][Nle][NMe3Pal][X1][PhLac][NMeS])) | 466
